Data on 31 compounds can be found in the supplement of paper PMC11616607.

Structures are written as SMILES.

In one assay the test system is Kuramochi. As to the kind of experiment: drug sensitivity score (DSS) from 5-point dose-response viability curve (DSS (area-under-curve based score)); higher = more sensitive (stronger growth inhibition or killing); extreme values may be limits of the assay. Conditions: exposure time: 72 h; concentration range: 5 concentrations over 10,000-fold range. The gist of the method: (§1)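 Each cell line and drug received a drug sensitivity score from Breeze software, where higher means more sensitive. Zero stands for no response. Scores came from CellTiter-Glo viability readings of ovarian cancer and normal ovarian cells, 1,500 per well in 384-well plates, after 3 days at 37°C, 5% CO2 with drugs at five concentrations over a 10,000-fold range.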
Consider `COc1ccc(-c2ccc3c(N4CCOC[C@@H]4C)nc(N4CCOC[C@@H]4C)nc3n2)cc1CO` [AZD8055], for which the drug sensitivity score came out at 15.6.

On to `N#Cc1ccc2[nH]c(O)c(-c3ccc(CN4CCOCC4)cn3)c2c1` [AZD-1080], for which the drug sensitivity score was 0.

On to `Cc1ncc(-c2ccnc(Nc3ccc(S(C)(=O)=O)cc3)n2)n1C(C)C` [AZD-5438], for which the drug sensitivity score came to 6.8.

As to `Cc1cc([C@@H](C)Nc2ccccc2C(=O)O)c2nc(N3CCOCC3)cc(=O)n2c1` [AZD-6482], the drug sensitivity score stood at 6.

The compound `C[C@@H](Nc1cc(F)cc(F)c1)c1cc(C(=O)N(C)C)cc2c(=O)cc(N3CCOCC3)oc12` [AZD-8186] returned a drug sensitivity score of 7.1.

Regarding `CCN1CCN(Cc2ccc(Nc3ncc(F)c(-c4cc(F)c5nc(C)n(C(C)C)c5c4)n3)nc2)CC1` [Abemaciclib], the drug sensitivity score was 2.5.

`CN(C)Cc1c(C(=O)NCCOc2ccc(C(=O)NO)cc2)oc2ccccc12` [Abexinostat] displayed a drug sensitivity score of 14.6.

Regarding `C[C@]12CC[C@H](O)CC1=CC[C@@H]1[C@@H]2CC[C@]2(C)C(c3cccnc3)=CC[C@@H]12` [Abiraterone], the drug sensitivity score is 0.

In turn, `CC#CC(=O)N1CCC[C@H]1c1nc(-c2ccc(C(=O)Nc3ccccn3)cc2)c2c(N)nccn12` [Acalabrutinib] gave a drug sensitivity score of 6.2.

For `COc1cc(C)c(/C=C/C(C)=C/C=C/C(C)=C/C(=O)O)c(C)c1C` [Acitretin], the drug sensitivity score amounted to 0.

For the compound `CN(C)C/C=C/C(=O)Nc1cc2c(Nc3ccc(F)c(Cl)c3)ncnc2cc1O[C@H]1CCOC1` [Afatinib], the drug sensitivity score came out at 2.3.

Turning to `Cn1ncc(Cl)c1-c1cc(C(=O)N[C@H](CN)Cc2cccc(F)c2)sc1Cl` [Afuresertib], the drug sensitivity score turned out to be 4.

On to `COc1cccc2c1C(=O)c1c(O)c3c(c(O)c1C2=O)C[C@@](O)(/C(CO)=N/NC(=O)CCCCCN1C(=O)C=CC1=O)C[C@@H]3O[C@H]1C[C@H](N)[C@H](O)[C@H](C)O1` [Aldoxorubicin], for which the drug sensitivity score was 5.8.

`CCc1cc2c(cc1N1CCC(N3CCOCC3)CC1)C(C)(C)c1[nH]c3cc(C#N)ccc3c1C2=O` [Alectinib] came in with a drug sensitivity score of 0.

The compound `COc1cc(Nc2ncc3c(n2)-c2ccc(Cl)cc2C(c2c(F)cccc2OC)=NC3)ccc1C(=O)O` [Alisertib] registered a drug sensitivity score of 3.7.

Regarding `Oc1ncnc2[nH]ncc12` [Allopurinol], the drug sensitivity score was determined as 0.

In turn, `Cc1nc(NC(=O)N2CCC[C@H]2C(N)=O)sc1-c1ccnc(C(C)(C)C(F)(F)F)c1` [Alpelisib] yielded a drug sensitivity score of 2.4.

Consider `O=C(Nc1cc(Oc2cc(F)c(NC(=O)C3(C(=O)Nc4ccc(F)cc4)CC3)cc2F)ccn1)C1CC1` [Altiratinib], for which the drug sensitivity score was determined as 4.3.

Turning to `CN1CC[C@H](c2c(O)cc(O)c3c(=O)cc(-c4ccccc4Cl)oc23)[C@H](O)C1` [Alvocidib], the drug sensitivity score amounted to 16.

`CCN(CC)CCNC(=O)c1c(C)[nH]c(/C=C2\C(=O)Nc3ccc(-c4csc(-c5ccccc5)n4)cc32)c1C` [Amcasertib] registered a drug sensitivity score of 0.

As to `CCC1(c2ccc(N)cc2)CCC(=O)NC1=O` (stereo unspecified) [Aminoglutethimide], the drug sensitivity score was 0.

Regarding `COc1cc(NS(C)(=O)=O)ccc1Nc1c2ccccc2nc2ccccc12` [Amsacrine], the drug sensitivity score is 0.

In turn, `S=C(NCc1ccc2c(c1)OCO2)N1CCN(c2ncnc3c2oc2ccccc23)CC1` [Amuvatinib] gave a drug sensitivity score of 0.2.

The compound `O=C1CN2Cc3c(ccc(Cl)c3Cl)N=C2N1` [Anagrelide] came in with a drug sensitivity score of 0.

In turn, `CC(C)(C#N)c1cc(Cn2cncn2)cc(C(C)(C)C#N)c1` [Anastrozole] gave a drug sensitivity score of 0.

`CNC(=O)c1ccc(N2C(=S)N(c3cnc(C#N)c(C(F)(F)F)c3)C(=O)C23CCC3)cc1F` [Apalutamide] gave a drug sensitivity score of 0.

The compound `N#CC1(c2ccc(NC(=O)c3cccnc3NCc3ccncc3)cc2)CCCC1` [Apatinib] gave a drug sensitivity score of 0.

Regarding `O=C(Nc1ccc(OC(F)(F)Cl)cc1)c1cnc(N2CC[C@@H](O)C2)c(-c2cc[nH]n2)c1` [Asciminib], the drug sensitivity score was 0.2.

`CC(C)c1c(C(=O)Nc2ccccc2)c(-c2ccccc2)c(-c2ccc(F)cc2)n1CC[C@@H](O)C[C@@H](O)CC(=O)O` [Atorvastatin] gave a drug sensitivity score of 1.

`CC(=O)OC[C@H]1O[C@@H]([S-])[C@H](OC(C)=O)[C@@H](OC(C)=O)[C@@H]1OC(C)=O.CCP(CC)CC.[Au+]` [Auranofin] came in with a drug sensitivity score of 2.9.

Take `CNC(=O)c1ccccc1Sc1ccc2c(/C=C/c3ccccn3)n[nH]c2c1` [Axitinib]: the drug sensitivity score came to 0.4.

In another assay the test system is COV318. The assay is described as above. Conditions: exposure time: 72 h; concentration range: 5 concentrations over 10,000-fold range. The gist of the method: as §1
Compound `COc1ccc(-c2ccc3c(N4CCOC[C@@H]4C)nc(N4CCOC[C@@H]4C)nc3n2)cc1CO` [AZD8055] displayed a drug sensitivity score of 13.6.

In turn, `N#Cc1ccc2[nH]c(O)c(-c3ccc(CN4CCOCC4)cn3)c2c1` [AZD-1080] showed a drug sensitivity score of 0.

As for `Cc1ncc(-c2ccnc(Nc3ccc(S(C)(=O)=O)cc3)n2)n1C(C)C` [AZD-5438], the drug sensitivity score amounted to 2.9.

Take `Cc1cc([C@@H](C)Nc2ccccc2C(=O)O)c2nc(N3CCOCC3)cc(=O)n2c1` [AZD-6482]: the drug sensitivity score came to 0.1.

Turning to `C[C@@H](Nc1cc(F)cc(F)c1)c1cc(C(=O)N(C)C)cc2c(=O)cc(N3CCOCC3)oc12` [AZD-8186], the drug sensitivity score was 0.7.

Consider `CCN1CCN(Cc2ccc(Nc3ncc(F)c(-c4cc(F)c5nc(C)n(C(C)C)c5c4)n3)nc2)CC1` [Abemaciclib], for which the drug sensitivity score was 1.

Consider `CN(C)Cc1c(C(=O)NCCOc2ccc(C(=O)NO)cc2)oc2ccccc12` [Abexinostat], for which the drug sensitivity score stood at 10.1.

`C[C@]12CC[C@H](O)CC1=CC[C@@H]1[C@@H]2CC[C@]2(C)C(c3cccnc3)=CC[C@@H]12` [Abiraterone] showed a drug sensitivity score of 0.

`CC#CC(=O)N1CCC[C@H]1c1nc(-c2ccc(C(=O)Nc3ccccn3)cc2)c2c(N)nccn12` [Acalabrutinib] gave a drug sensitivity score of 3.5.

The compound `COc1cc(C)c(/C=C/C(C)=C/C=C/C(C)=C/C(=O)O)c(C)c1C` [Acitretin] gave a drug sensitivity score of 0.

Compound `CN(C)C/C=C/C(=O)Nc1cc2c(Nc3ccc(F)c(Cl)c3)ncnc2cc1O[C@H]1CCOC1` [Afatinib] gave a drug sensitivity score of 0.

`Cn1ncc(Cl)c1-c1cc(C(=O)N[C@H](CN)Cc2cccc(F)c2)sc1Cl` [Afuresertib]: the drug sensitivity score worked out at 1.8.

Compound `COc1cccc2c1C(=O)c1c(O)c3c(c(O)c1C2=O)C[C@@](O)(/C(CO)=N/NC(=O)CCCCCN1C(=O)C=CC1=O)C[C@@H]3O[C@H]1C[C@H](N)[C@H](O)[C@H](C)O1` [Aldoxorubicin] showed a drug sensitivity score of 3.8.

`CCc1cc2c(cc1N1CCC(N3CCOCC3)CC1)C(C)(C)c1[nH]c3cc(C#N)ccc3c1C2=O` [Alectinib] had a drug sensitivity score of 0.

In turn, `COc1cc(Nc2ncc3c(n2)-c2ccc(Cl)cc2C(c2c(F)cccc2OC)=NC3)ccc1C(=O)O` [Alisertib] had a drug sensitivity score of 1.9.
